From patent US5488051A, “Substituted 5,6-dihydro-5-oxo-1,4-dithiino-(2,3-d)-pyridazine-2,3-dicarbonitriles, compositions containing them and their use as antimicrobials” (The Dow Chemical Company, priority 1994, dated 1996)
Converted amounts (≈) assume the structure as drawn. Where two headings read alike, the source gives them in different places.

Key:
[1] = system: Pseudomonas aeruginosa (Pa); experiment: MIC for Pseudomonas aeruginosa, nutrient agar; assay type: cell-based, Pseudomonas aeruginosa ATCC 10145; conditions: 48 hours, read-out: Minimum Inhibitory Concentration (MIC), Pa
Procedure, shortened: (§1)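 Overnight nutrient-broth cultures (24 h, 30° C, shaken) diluted to 10^8 CFU/mL and spotted with a Steer's Replicator onto compound-containing nutrient agar plates, neutral and alkaline pH. Incubation 48 h at 30° C; MIC read as the lowest level preventing visible growth.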

marine organism growth = experiment: Marine antifouling rating of coated test panels exposed to marine environment; parameters: species or system marine organisms; conditions: scale 10 (completely free of growth) to 0 (completely covered); for Marine Antifouling Rating, 10 Week Test, Bottom Panel / Marine Antifouling Rating, 10 Week Test, Top Panel: 10 weeks; for Marine Antifouling Rating, 10 Week Test, Top Panel: untreated Control 7
Description: Test panels are prepared from clear, rigid polyvinyl chloride film that is 0.381×10^-3 m thick and has one textured surface. The test panels are 0.1524 m by 0.1524 m squares that have 0.00635 m holes punched at corners on 0.127 m centers. A 0.102 square template, with a 0.067 m diameter hole at the center, is attached to the center of the textured surface of the test panels.
A candidate marine antifoulant compound (1.0 g) is stirred into a resinous latex binder (9.0 g). A portion of the compound/binder mixture (1.5 g) is added to the center of the test panel and uniformly spread over the circular area inside the template.
Water is added dropwise as needed to properly spread the compound/binder mixture. The template prevents the compound/binder mixture from spreading beyond the uncovered area. The test panel is allowed to sit for between ten to thirty minutes until the edge of the spread compound/binder mixture has dried. The template is then removed. The test panel is then allowed to dry for 8 to 12 hours at room temperature.
Two test panels are prepared for each candidate marine antifoulant compound. Two control test panels are also prepared by only treating with the resinous latex binder. One test panel of each candidate marine […] compound is attached over a white background to the topside of an exposure support apparatus. The second test panel is attached over a black background to the underside of the exposure support apparatus. The exposure support apparatus is placed horizontally 0.0254 m under a marine surface with the white background topside facing up. The exposure support apparatus is exposed to the marine environment for both 10 and 20 weeks during which time the control test panels become substantially covered with mature marine organism growth on both the topside and underside exposures.
After being removed from the exposure support apparatus, each test panel is inspected and rated for marine organism growth on both the treated and untreated areas of the test panel. The marine organisms present on the treated and untreated areas are noted. The presence of algae spores and bacterial slime are noted but not included in rating each test panel. The test panels are rated on a scale from 10 (representing completely free of marine organism growth) to 0 (representing completely covered with marine organism growth).
In Table V, the marine antifouling rating values for some of the compounds listed in Table I are set forth, as well as the ratings for control panels (using no marine antifouling compound, and referred to in Table V as "Control") and panels using a standard commercial marine antifouling compound (with copper (I) oxide (Cu2 O) as the active agent and referred to in Table V as "STANDARD II").

Salmonella choleraesuis = experiment: MIC for Salmonella choleraesuis, nutrient agar; assay type: cell-based, Salmonella choleraesuis ATCC 10708; conditions: Salmonella enterica, 30° C., 48 hours, read-out: Minimum Inhibitory Concentration (MIC), SC
Procedure, shortened: as §1

Proteus vulgaris (Pv) = experiment: MIC for Proteus vulgaris, nutrient agar; assay type: cell-based, Proteus vulgaris ATCC 881; conditions: 30° C., 48 hours, read-out: Minimum Inhibitory Concentration (MIC), Pv
Procedure, shortened: as §1

Trichoderma viride (Tv) = experiment: MIC for Trichoderma viride, malt yeast agar; assay type: cell-based, Trichoderma viride ATCC 8678; conditions: malt yeast agar; 30° C., 72 hours for fungi; read-out: Minimum Inhibitory Concentration (MIC), Tv
Procedure, shortened: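 Agar dilution on malt yeast agar with compound (from 1% acetone/water solution) at final 0, 1.0, 2.5, 5, 10, 25, 50, 100, 250, 500 ppm. Plates inoculated by replicator with saline suspensions (1:9 diluted) of 7-day cultures; incubated at 30 °C, read at 48 h for yeast and 72 h for fungi.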

[2] = system: Enterobacter aerogenes (Ea); experiment: MIC for Enterobacter aerogenes, nutrient agar; assay type: cell-based, Enterobacter aerogenes ATCC 13048; conditions: Klebsiella aerogenes, nutrient agar, 30° C., 48 hours, read-out: Minimum Inhibitory Concentration (MIC), Ea
Procedure, shortened: as §1

[3] = bottom panel (black background), untreated Control 1

SMILES	MIC ([1]; pH 6.8, 30° C.) [µg/mL]	MIC ([1]; pH 8.2, 30° C.) [µg/mL]	Marine Antifouling Rating, 10 Week Test, Bottom Panel (marine organism growth; [3])	Marine Antifouling Rating, 10 Week Test, Top Panel (marine organism growth; top panel (white background))	Marine Antifouling Rating, 20 Week Test, Bottom Panel (marine organism growth; 20 weeks, bottom panel (black background), untreated Control 1)	Marine Antifouling Rating, 20 Week Test, Top Panel (marine organism growth; 20 weeks, top panel (white background), untreated Control 1)	MIC (Salmonella choleraesuis; pH 6.8, nutrient agar) [µg/mL]	MIC (Salmonella choleraesuis; pH 8.2, nutrient agar) [µg/mL]	MIC (Proteus vulgaris (Pv); pH 6.8, nutrient agar) [µg/mL]	MIC (Proteus vulgaris (Pv); pH 8.2, nutrient agar) [µg/mL]	MIC (Trichoderma viride (Tv)) [µg/mL]	MIC ([2]; pH 6.8) [µg/mL]	MIC ([2]; pH 8.2) [µg/mL]
Cc1ccc(-n2ncc3c(c2=O)SC(C#N)=C(C#N)S3)cc1 [B, 5,6-dihydro-6-(4-methylphenyl)-5-oxo-1,4-dithiino-(2,3-d)-pyridazine-2,3-dicarbonitrile]	> 500	> 500	4	10	1	1	> 500	> 500	500 (≈ 1540 µM)	> 500	25 (≈ 77.1 µM)	> 500	> 500
N#CC1=C(C#N)Sc2c(cnn(-c3ccc(Br)cc3)c2=O)S1 [C, 5,6-dihydro-6-(4-bromophenyl)-5-oxo-1,4-dithiino-(2,3-d)-pyridazine-2,3-dicarbonitrile]	> 500	> 500	1	7	–	–	100 (≈ 257 µM)	> 500	250 (≈ 642 µM)	> 500	25 (≈ 64.2 µM)	> 500	> 500
